Laboratory results as given in patent publication US20260317324A1, “BIFUNCTIONAL COMPOUNDS FOR DEGRADING BRAF VIA UBIQUITIN PROTEOSOME PATHWAY” (Nurix Therapeutics, Inc., priority 2023, published 2026).

Tests used:
Format in all cases: cell-based
BRAF V600E = target: T1, BRAF V600E (Homo sapiens, UniProt P15056, V600E); assay: BRAF HiBiT degradation assay, C-terminal HiBiT-tagged BRAF V600E A375 cells (clone 1F10), Nano-Glo HiBiT Lytic assay; conditions: A375 (BRAF V600E, Class 1); for DC50: DC50 at 50% degradation; for Dmax: A-375, observed Dmax, % protein degraded relative to DMSO control
T1 construct: endogenous C-terminal HiBiT fusion tag on BRAF V600E allele; endogenous in cells; host or cells: A375 clone 1F10 (CRISPR-Cas9 knock-in of the HiBiT tag; parental A375 from ATCC)
T1 sequence (P15056 whole entry V600E, the tested form may be a part): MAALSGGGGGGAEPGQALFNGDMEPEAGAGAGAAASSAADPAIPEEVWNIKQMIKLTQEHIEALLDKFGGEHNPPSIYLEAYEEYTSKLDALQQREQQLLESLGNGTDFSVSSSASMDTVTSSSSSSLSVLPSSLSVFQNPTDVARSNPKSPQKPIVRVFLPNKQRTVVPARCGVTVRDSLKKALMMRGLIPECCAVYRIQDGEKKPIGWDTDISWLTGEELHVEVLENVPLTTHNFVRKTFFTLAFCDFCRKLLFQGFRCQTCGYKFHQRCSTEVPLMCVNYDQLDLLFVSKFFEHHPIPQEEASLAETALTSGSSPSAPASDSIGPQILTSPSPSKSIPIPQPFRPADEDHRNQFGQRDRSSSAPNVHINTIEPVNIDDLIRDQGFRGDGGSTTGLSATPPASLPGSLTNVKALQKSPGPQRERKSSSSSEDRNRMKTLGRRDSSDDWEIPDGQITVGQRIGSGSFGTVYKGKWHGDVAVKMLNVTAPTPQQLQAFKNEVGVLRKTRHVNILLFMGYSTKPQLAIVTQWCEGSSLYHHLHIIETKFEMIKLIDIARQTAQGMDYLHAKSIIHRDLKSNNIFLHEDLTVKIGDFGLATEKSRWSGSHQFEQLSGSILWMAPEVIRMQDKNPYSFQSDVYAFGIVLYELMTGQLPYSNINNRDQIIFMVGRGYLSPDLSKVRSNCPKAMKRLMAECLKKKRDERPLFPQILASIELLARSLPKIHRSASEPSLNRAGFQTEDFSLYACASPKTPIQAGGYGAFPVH
Method in brief: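 Luminescence from the Nano-Glo HiBiT lytic read-out gave % BRAF V600E remaining versus DMSO-treated tagged cells, with untagged A375 as background. Clone 1F10 cells (10,000/well, 24 h pre-culture) received compound at 1 μM–0.01 nM in half-log steps, 0.2% DMSO; curve fits gave DC50 at Y=50, plus observed Dmax.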

BRAF G466V = target: T2, BRAF G466V (Homo sapiens, UniProt P15056, G466V); assay: BRAF HiBiT degradation assay, C-terminal HiBiT-tagged BRAF G466V overexpressed in HCT-116 BRAF−/− cells (clone 8), Nano-Glo HiBiT Lytic assay; conditions: BRAF G466V (Class 3), HCT-116 BRAF−/− cells; for DC50: DC50 at 50% degradation; for Dmax: observed Dmax relative to DMSO control
T2 construct: Horizon Discovery (HCT-116 BRAF−/− cells); host or cells: HCT-116 BRAF−/− cells, clone 8, lentiviral transduction
T2 sequence (P15056 whole entry G466V): as the sequence (P15056 whole entry V600E, the tested form may be a part) above, with G466V, E600V counted along it
Method in brief: (§1)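 Degradation was read by Nano-Glo HiBiT lytic luminescence, normalised to DMSO-treated tagged cells with wildtype HCT-116 as background. Test cells were lentiviral clones of HCT-116 BRAF−/− carrying HiBiT-tagged mutants in RPMI/10% FBS, given compound at 0.01 nM–1 μM in duplicate. Outputs are the curve-fitted concentration giving 50% degradation and the maximal observed degradation.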

BRAF G469A = target: T3, BRAF G469A (Homo sapiens, UniProt P15056, G469A); assay: BRAF HiBiT degradation assay, C-terminal HiBiT-tagged BRAF G469A overexpressed in HCT-116 BRAF−/− cells (clone 34), Nano-Glo HiBiT Lytic assay; conditions: BRAF G469A (Class 2), HCT-116 BRAF−/− cells; for DC50: DC50 at 50% degradation; for Dmax: observed Dmax relative to DMSO control
T3 construct: Horizon Discovery (HCT-116 BRAF−/− cells); host or cells: HCT-116 BRAF−/− cells, clone 34, lentiviral transduction
T3 sequence (P15056 whole entry G469A): as the sequence (P15056 whole entry V600E, the tested form may be a part) above, with G469A, E600V counted along it
Method in brief: as §1

BRAF D594G = target: T4, BRAF D594G (Homo sapiens, UniProt P15056, D594G); assay: BRAF HiBiT degradation assay, C-terminal HiBiT-tagged BRAF D594G overexpressed in HCT-116 BRAF−/− cells (clone 63), Nano-Glo HiBiT Lytic assay; conditions: BRAF D594G (Class 3), HCT-116 BRAF−/− cells; for DC50: DC50 at 50% degradation; for Dmax: observed Dmax relative to DMSO control
T4 construct: Horizon Discovery (HCT-116 BRAF−/− cells); host or cells: HCT-116 BRAF−/− cells, clone 63, lentiviral transduction
T4 sequence (P15056 whole entry D594G): as the sequence (P15056 whole entry V600E, the tested form may be a part) above, with D594G, E600V counted along it
Method in brief: as §1

SMILES | DC50 (BRAF V600E) | Dmax (BRAF V600E) | DC50 (BRAF G466V) | Dmax (BRAF G466V) | DC50 (BRAF G469A) | Dmax (BRAF G469A) | DC50 (BRAF D594G) | Dmax (BRAF D594G)
CCN(C)S(=O)(=O)Nc1cc(Cl)cc(-c2cn(-c3ccc(N4CCN(CC5CCN(c6ccc([C@H]7CCC(=O)NC7=O)cn6)CC5)CC4)cc3)nc2-c2ccncc2)c1F [Compound 309, (3R)-3-(6-{4-[(4-{4-[4-(5-chloro-3-{[ethyl(methyl)sulfamoyl]amino}-2-fluorophenyl)-3-(pyridin-4-yl)-1H-pyrazol-1-yl]phenyl}piperazin-1-yl)methyl]piperidin-1-yl}pyridin-3-yl)piperidine-2,6-dione] | < 10 nM | > 70% | < 10 nM | > 70% | 10 to 50 nM | > 70% | < 10 nM | 30 to 70%
CCN(C)S(=O)(=O)Nc1cc(Cl)cc(-c2cn(-c3ccc(N4CCN(CC5CCN(c6ccc([C@H]7CCC(=O)NC7=O)cc6)CC5)CC4)cn3)nc2-c2ccncc2)c1F [Compound 310, (3R)-3-(4-{4-[(4-{6-[4-(5-chloro-3-{[ethyl(methyl)sulfamoyl]amino}-2-fluorophenyl)-3-(pyridin-4-yl)-1H-pyrazol-1-yl]pyridin-3-yl}piperazin-1-yl)methyl]piperidin-1-yl}phenyl)piperidine-2,6-dione] | < 10 nM | > 70% | 10 to 50 nM | > 70% | 10 to 50 nM | 30 to 70% | < 10 nM | > 70%
CCN(C)S(=O)(=O)Nc1cc(Cl)cc(-c2cn(-c3ccc(N4CCN(CC5CCN(c6ccc(N7CCC(=O)NC7=O)cc6)CC5)CC4)cn3)nc2-c2ccncc2)c1F [Compound 311, 1-(4-{4-[(4-{6-[4-(5-chloro-3-{[ethyl(methyl)sulfamoyl]amino}-2-fluorophenyl)-3-(pyridin-4-yl)-1H-pyrazol-1-yl]pyridin-3-yl}piperazin-1-yl)methyl]piperidin-1-yl}phenyl)-1,3-diazinane-2,4-dione] | 10 to 50 nM | > 70% | 50 to 500 nM | 30 to 70% | > 500 nM | 30 to 70% | 10 to 50 nM | 30 to 70%
CCN(C)S(=O)(=O)Nc1cc(Cl)cc(-c2cn(-c3ccc(N4CCN(CC5CCN(c6ccc(N7CCC(=O)NC7=O)cn6)CC5)CC4)cn3)nc2-c2ccncc2)c1F [Compound 313, 1-(6-{4-[(4-{6-[4-(5-chloro-3-{[ethyl(methyl)sulfamoyl]amino}-2-fluorophenyl)-3-(pyridin-4-yl)-1H-pyrazol-1-yl]pyridin-3-yl}piperazin-1-yl)methyl]piperidin-1-yl}pyridin-3-yl)-1,3-diazinane-2,4-dione] | 10 to 50 nM | > 70% | 10 to 50 nM | > 70% | 50 to 500 nM | 30 to 70% | < 10 nM | 30 to 70%
CCN(C)S(=O)(=O)Nc1cc(Cl)cc(-c2cn(-c3ccc(N4CCN(CC5CCN(c6ccc([C@H]7CCC(=O)NC7=O)cn6)CC5)CC4)cn3)nc2-c2ccncc2)c1F [Compound 314, (3R)-3-(6-{4-[(4-{6-[4-(5-chloro-3-{[ethyl(methyl)sulfamoyl]amino}-2-fluorophenyl)-3-(pyridin-4-yl)-1H-pyrazol-1-yl]pyridin-3-yl}piperazin-1-yl)methyl]piperidin-1-yl}pyridin-3-yl)piperidine-2,6-dione] | < 10 nM | > 70% | 10 to 50 nM | > 70% | 10 to 50 nM | 30 to 70% | < 10 nM | > 70%
C[C@@H]1CN(c2ccc(-n3cc(-c4cc(Cl)cc(NS(=O)(=O)N5CC[C@@H](F)C5)c4F)c(-c4ccncc4)n3)cc2)CCN1CC1CCN(c2ccc(N3CCC(=O)NC3=O)cc2)CC1 [Compound 315, (3R)—N-[5-chloro-3-(1-{4-[(3R)-4-({1-[4-(2,4-dioxo-1,3-diazinan-1-yl)phenyl]piperidin-4-yl}methyl)-3-methylpiperazin-1-yl]phenyl}-3-(pyridin-4-yl)-1H-pyrazol-4-yl)-2-fluorophenyl]-3-fluoropyrrolidine-1-sulfonamide] | < 10 nM | > 70% | < 10 nM | > 70% | 10 to 50 nM | 30 to 70% | < 10 nM | 30 to 70%
C[C@@H]1CN(c2ccc(-n3cc(-c4cc(Cl)cc(NS(=O)(=O)N5CCCC5)c4F)c(-c4ccncc4)n3)cc2)CCN1CC1CCN(c2ccc([C@H]3CCC(=O)NC3=O)cc2)CC1 [Compound 316, N-[5-chloro-3-(1-{4-[(3R)-4-[(1-{4-[(3R)-2,6-dioxopiperidin-3-yl]phenyl}piperidin-4-yl)methyl]-3-methylpiperazin-1-yl]phenyl}-3-(pyridin-4-yl)-1H-pyrazol-4-yl)-2-fluorophenyl]pyrrolidine-1-sulfonamide] | < 10 nM | > 70% | < 10 nM | > 70% | 10 to 50 nM | > 70% | < 10 nM | 30 to 70%
C[C@@H]1CN(c2ccc(-n3cc(-c4cc(Cl)cc(NS(=O)(=O)N5CC[C@@H](F)C5)c4F)c(-c4ccncc4)n3)cc2)CCN1CC1CCN(c2ccc([C@H]3CCC(=O)NC3=O)cc2)CC1 [Compound 317, (3R)—N-[5-chloro-3-(1-{4-[(3R)-4-[(1-{4-[(3R)-2,6-dioxopiperidin-3-yl]phenyl}piperidin-4-yl)methyl]-3-methylpiperazin-1-yl]phenyl}-3-(pyridin-4-yl)-1H-pyrazol-4-yl)-2-fluorophenyl]-3-fluoropyrrolidine-1-sulfonamide] | < 10 nM | > 70% | < 10 nM | > 70% | < 10 nM | > 70% | < 10 nM | 30 to 70%
C[C@@H]1CN(c2ccc(-n3cc(-c4cc(Cl)cc(NS(=O)(=O)N5CCCC5)c4F)c(-c4ccncc4)n3)cc2)CCN1CC1CCN(c2ccc(N3CCC(=O)NC3=O)cc2)CC1 [Compound 319, N-[5-chloro-3-(1-{4-[(3R)-4-({1-[4-(2,4-dioxo-1,3-diazinan-1-yl)phenyl]piperidin-4-yl}methyl)-3-methylpiperazin-1-yl]phenyl}-3-(pyridin-4-yl)-1H-pyrazol-4-yl)-2-fluorophenyl]pyrrolidine-1-sulfonamide] | < 10 nM | > 70% | < 10 nM | > 70% | 50 to 500 nM | 30 to 70% | < 10 nM | 30 to 70%
C[C@@H]1CN(c2ccc(-n3cc(-c4cc(Cl)cc(NS(=O)(=O)N5CC[C@@H](F)C5)c4F)c(-c4ccncc4)n3)nc2)CCN1CC1CCN(c2ccc([C@H]3CCC(=O)NC3=O)cc2)CC1 [Compound 320, (3R)—N-[5-chloro-3-(1-{5-[(3R)-4-[(1-{4-[(3R)-2,6-dioxopiperidin-3-yl]phenyl}piperidin-4-yl)methyl]-3-methylpiperazin-1-yl]pyridin-2-yl}-3-(pyridin-4-yl)-1H-pyrazol-4-yl)-2-fluorophenyl]-3-fluoropyrrolidine-1-sulfonamide] | < 10 nM | > 70% | < 10 nM | > 70% | < 10 nM | > 70% | < 10 nM | > 70%
C[C@@H]1CN(c2ccc(-n3cc(-c4cc(Cl)cc(NS(=O)(=O)N5CC[C@@H](F)C5)c4F)c(-c4ccncc4)n3)nc2)CCN1CC1CCN(c2ccc(N3CCC(=O)NC3=O)cc2)CC1 [Compound 322, (3R)—N-[5-chloro-3-(1-{5-[(3R)-4-({1-[4-(2,4-dioxo-1,3-diazinan-1-yl)phenyl]piperidin-4-yl}methyl)-3-methylpiperazin-1-yl]pyridin-2-yl}-3-(pyridin-4-yl)-1H-pyrazol-4-yl)-2-fluorophenyl]-3-fluoropyrrolidine-1-sulfonamide] | < 10 nM | > 70% | < 10 nM | 30 to 70% | 50 to 500 nM | 30 to 70% | < 10 nM | 30 to 70%
